{
  "source": "patent US5688824A",
  "about": "“Use of leflunomide to prevent or control xenograft rejection” (priority 1996, dated 1997)",
  "key": {"[1]": {"system": "renal allograft", "conditions": "BN-LEW renal transplant; cited from earlier work"}, "[2]": {"system": "rejection of concordant hamster to rat cardiac xenografts", "conditions": "earlier work, cited from earlier work"}, "[3]": {"system": "human peripheral blood lymphocytes", "experiment": "one-way mixed lymphocyte reaction (3H-thymidine uptake)", "format": "cell-based", "experimental": "The effect of varying concentrations of leflunomide product (A771726, Hoechst AG Werk Albert, Wiesbaden, Germany) in combination with varying concentrations of rapamycin (Wyeth-Ayerst Research, Rouses Point, N.Y.) was evaluated in a one-way mixed lymphocyte reaction (MLR) performed according to Kahan et al., Transplantation, 51:232 (1991). Briefly, human peripheral blood lymphocytes (2×10^5 per well) were incubated with an equal number of gamma-irradiated, allogeneic peripheral blood lymphocytes for 5 days in the presence of varying concentrations of leflunomide and rapamycin. The lymphocytes were then incubated for 16 to 20 hours with 1 μCi/well of ^3 H-thymidine. The amount of ^3 H-thymidine uptake was measured, and the percent inhibition of proliferation by each drug or drug combination was calculated. Data from two trials appear below in Tables 4 and 5."}, "[4]": {"system": "cGvH disease or SLE", "conditions": "mouse, U.S. Pat. No. 4,965,276; cited from earlier work"}, "[5]": {"system": "murine B-cell", "conditions": "in vitro; cited from earlier work"}, "[6]": {"system": "murine T-cell", "conditions": "in vitro; cited from earlier work"}, "[7]": {"system": "heterotopic small intestinal transplantation", "conditions": "cited from earlier work"}, "[8]": {"conditions": "humans; cited from earlier work"}, "[9]": {"system": "SLE in MRL/lpr mice", "conditions": "at the end of 10 weeks, mice with elevated urine protein; cited from earlier work"}},
  "note": "Like-named read-outs stand apart in the source and are kept apart here.",
  "data": [
    {"smiles": "Cn1cnc([N+](=O)[O-])c1Sc1ncnc2nc[nH]c12", "note": "[azathioprine]", "values": [
      {"measurement": "protection", "setting": "[1]", "value": "neither azathioprine nor prednisolone offered any protection"}
    ]},
    {"smiles": "O=P1(N(CCCl)CCCl)NCCCO1", "note": "(stereo not shown) [Cytoxan]", "values": [
      {"measurement": "control of xenograft rejection", "setting": "[2]; Cytoxan", "value": "can completely control rejection of xenografts"},
      {"measurement": "toxicity of required dose", "setting": "[2]; Cytoxan", "value": "lethally toxic range"}
    ]},
    {"smiles": "C/C(O)=C(\\C#N)C(=O)Nc1ccc(C(F)(F)F)cc1", "note": "[A771726, N-(4-trifluoromethylphenyl)-2-cyano-3-hydroxycrotonamide]", "values": [
      {"measurement": "% Inhibition of Lymphocyte Proliferation", "setting": "[3]; 12.50 μM Lef, 0.00 nM Rapa, Table 4", "value": 15.19, "unit": "%"},
      {"measurement": "% Inhibition of Lymphocyte Proliferation", "setting": "[3]; 12.50 μM Lef, 0.00 nM Rapa, Table 5", "value": 21.84, "unit": "%"},
      {"measurement": "% Inhibition of Lymphocyte Proliferation", "setting": "[3]; 25.00 μM Lef, 0.00 nM Rapa, Table 4", "value": 37.35, "unit": "%"},
      {"measurement": "% Inhibition of Lymphocyte Proliferation", "setting": "[3]; 25.00 μM Lef, 0.00 nM Rapa, Table 5", "value": 38.40, "unit": "%"},
      {"measurement": "% Inhibition of Lymphocyte Proliferation", "setting": "[3]; 50.00 μM Lef, 0.00 nM Rapa, Table 4", "value": 56.71, "unit": "%"},
      {"measurement": "% Inhibition of Lymphocyte Proliferation", "setting": "[3]; 50.00 μM Lef, 0.00 nM Rapa, Table 5", "value": 68.63, "unit": "%"},
      {"measurement": "glomerulonephritis, anti-dsDNA titer, GvH index, T-lymphocyte proliferative ability", "setting": "[4]", "value": "prevented development of glomerulonephritis, reduced anti-dsDNA titer, decreased the GvH index (a measure of relative spleen enlargement), and improved the diminished proliferative ability of T-lymphocytes"},
      {"measurement": "inhibition of development of cGvH disease or SLE", "setting": "[4]", "value": "effective in inhibiting the development of cGvH disease or SLE"},
      {"measurement": "inhibition of murine B-cell proliferation", "setting": "[5]", "value": "more potent inhibitor of B-cell proliferation"},
      {"measurement": "inhibition of murine T-cell proliferation", "setting": "[6]", "value": "inhibit murine B-cell and T-cell proliferation"},
      {"measurement": "survival of recipients", "setting": "[7]; 5 mg/kg/day by gavage for 7 days", "value": "15.0 ± 2.1", "unit": "days"},
      {"measurement": "survival of recipients", "setting": "[7]; 5 mg/kg/day by gavage for 14 days", "value": "21.2 ± 1.6", "unit": "days"},
      {"measurement": "survival of recipients", "setting": "[7]; 5 mg/kg/day by gavage for 28 days", "value": "33.8 ± 2.4", "unit": "days"}
    ]},
    {"smiles": "C=CC[C@@H]1/C=C(\\C)C[C@H](C)C[C@H](OC)[C@H]2O[C@@](O)(C(=O)C(=O)N3CCCC[C@H]3C(=O)O[C@H](/C(C)=C/[C@@H]3CC[C@@H](O)[C@H](OC)C3)[C@H](C)[C@@H](O)CC1=O)[C@H](C)C[C@@H]2OC", "note": "[FK-506]", "values": [
      {"measurement": "effect on xenograft survival", "setting": "[2]; hamster to rat cardiac xenograft", "value": "limited effect on xenograft survival even at lethal doses"}
    ]},
    {"smiles": "Nc1ccc(C(F)(F)F)cc1", "note": "[trifluoromethyl aniline]", "values": [
      {"measurement": "side effect of accumulation of the metabolite", "setting": "[8]", "value": "Heinz-body hemolytic anemia"}
    ]},
    {"smiles": "CO[C@H]1C[C@@H]2CC[C@@H](C)[C@@](O)(O2)C(=O)C(=O)N2CCCC[C@H]2C(=O)O[C@H]([C@H](C)C[C@@H]2CC[C@@H](O)[C@H](OC)C2)CC(=O)[C@H](C)/C=C(\\C)[C@@H](O)[C@@H](OC)C(=O)[C@H](C)C[C@H](C)/C=C/C=C/C=C/1C", "note": "[rapamycin]", "values": [
      {"measurement": "% Inhibition of Lymphocyte Proliferation", "setting": "[3]; 0.010 nM Rapa, 0.00 μM Lef, Table 4", "value": 27.12, "unit": "%"},
      {"measurement": "% Inhibition of Lymphocyte Proliferation", "setting": "[3]; 0.010 nM Rapa, 0.00 μM Lef, Table 5", "value": 4.78, "unit": "%"},
      {"measurement": "% Inhibition of Lymphocyte Proliferation", "setting": "[3]; 0.050 nM Rapa, 0.00 μM Lef, Table 4", "value": 38.78, "unit": "%"},
      {"measurement": "% Inhibition of Lymphocyte Proliferation", "setting": "[3]; 0.050 nM Rapa, 0.00 μM Lef, Table 5", "value": 37.75, "unit": "%"},
      {"measurement": "% Inhibition of Lymphocyte Proliferation", "setting": "[3]; 0.100 nM Rapa, 0.00 μM Lef, Table 4", "value": 57.42, "unit": "%"},
      {"measurement": "% Inhibition of Lymphocyte Proliferation", "setting": "[3]; 0.100 nM Rapa, 0.00 μM Lef, Table 5", "value": 51.71, "unit": "%"},
      {"measurement": "% Inhibition of Lymphocyte Proliferation", "setting": "[3]; 1.00 nM Rapa, 0.00 μM Lef, Table 4", "value": 89.25, "unit": "%"},
      {"measurement": "% Inhibition of Lymphocyte Proliferation", "setting": "[3]; 1.00 nM Rapa, 0.00 μM Lef, Table 5", "value": 80.83, "unit": "%"}
    ]},
    {"smiles": "C[C@]12C=CC(=O)C=C1CC[C@@H]1[C@@H]2[C@@H](O)C[C@@]2(C)[C@H]1CC[C@]2(O)C(=O)CO", "note": "[prednisolone]", "values": [
      {"measurement": "animals still alive", "setting": "[9]", "value": 40, "unit": "%"},
      {"measurement": "protection", "setting": "[1]", "value": "neither azathioprine nor prednisolone offered any protection"}
    ]}
  ]
}
